Results reported in the NIST ThermoML archive (doi:10.1016/j.jct.2018.03.007).

Assay: xn = mol fraction of the nth substance listed
Conditions: 100 kPa, Liquid; for speed of sound: Frequency=2 MHz, Linear variable-path acoustic interferometer; for mass density: Vibrating tube method

CCn1cc[n+](C)c1.O=S(=O)([O-])O [1-ethyl-3-methylimidazolium hydrogen sulfate] + CCCO
Conditions	mass density, 298.15 K [kg/m3]	mass density, 303.15 K [kg/m3]	mass density, 308.15 K [kg/m3]	mass density, 313.15 K [kg/m3]	speed of sound, 298.15 K [m/s]	speed of sound, 303.15 K [m/s]	speed of sound, 308.15 K [m/s]	speed of sound, 313.15 K [m/s]
x1 = 0.0519	859.54	855.59	851.62	847.65	1272.3	1254.7	1237.1	1219.7
x1 = 0.1097	918.5	914.64	910.8	906.93	1342.3	1324	1305.9	1288.1
x1 = 0.2473	1034.63	1030.95	1027.23	1023.51	1486.2	1467.1	1448.3	1429.1
x1 = 0.3301	1091.59	1088.01	1084.39	1080.78	1561.1	1542	1522.1	1502.6
x1 = 0.425	1147.59	1144.15	1140.69	1137.24	1640.8	1621.3	1601.4	1581.7
x1 = 0.5348	1202.62	1199.35	1196.07	1192.77	1724.4	1704.9	1684.2	1664.9
x1 = 0.6634	1256.73	1253.6	1250.5	1247.33	1808.4	1788.3	1767.3	1747.8
x1 = 0.816	1310.71	1307.54	1304.42	1301.31	1892	1871.6	1850.6	1830.1
x1 = 0.9035	1338.05	1334.87	1331.73	1328.62	1937.7	1917.9	1898.1	1878.1
x1 = 1	1365.75	1362.62	1359.53	1356.41	1982.8	1962.9	1943.1	1923.2
